Target: T1, γ-humulene synthase (SEQ ID No:24) (Abies grandis, UniProt O64405)
T1 construct: For further subcloning of the amplified, full-length cDNA into the pSBETa vector for high-level expression, the pGAG5 insert was amplified; made in house; host or cells: E. coli XL1-Blue/pGAG5 or E. coli BL21(DE3)/pSBAG5
T1 sequence (O64405 1-593): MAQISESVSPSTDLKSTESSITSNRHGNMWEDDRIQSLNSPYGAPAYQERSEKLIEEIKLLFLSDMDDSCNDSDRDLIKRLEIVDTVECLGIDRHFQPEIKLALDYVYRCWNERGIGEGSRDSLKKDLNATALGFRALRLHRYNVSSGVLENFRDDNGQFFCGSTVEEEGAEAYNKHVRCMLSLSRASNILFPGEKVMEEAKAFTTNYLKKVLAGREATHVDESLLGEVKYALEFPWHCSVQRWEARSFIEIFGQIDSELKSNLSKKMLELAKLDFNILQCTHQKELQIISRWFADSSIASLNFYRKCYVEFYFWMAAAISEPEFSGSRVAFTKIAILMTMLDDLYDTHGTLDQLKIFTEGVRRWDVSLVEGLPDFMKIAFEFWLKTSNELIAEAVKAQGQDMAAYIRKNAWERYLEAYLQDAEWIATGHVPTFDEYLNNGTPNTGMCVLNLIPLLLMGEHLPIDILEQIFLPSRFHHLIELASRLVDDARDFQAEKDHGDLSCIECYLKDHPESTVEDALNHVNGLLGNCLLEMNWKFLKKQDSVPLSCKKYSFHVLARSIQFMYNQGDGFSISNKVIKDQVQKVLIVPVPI
Test: Kinetic parameters, metal ion requirement and substrate specificity of recombinant γ-humulene synthase
Type: biochemical
Procedure: The assay for recombinant sesquiterpene synthase (cyclase) activity was performed in 1 ml of buffer (extraction buffer without MnCl2 or the polymeric adsorbents) containing 3.5 μM [1-^3H]farnesyl diphosphate and the total protein extracted from a 5 ml bacterial culture to produce 10^5-10^6 dpm of product in 2 h at 31° C. The incubation mixture was overlaid with 1 ml pentane to trap volatile products. After incubation, the reaction mixture was extracted with pentane (3×1 ml) and the combined extract was passed through a MgSO4-silica gel column to provide the terpene hydrocarbon fractions as before. The columns were subsequently eluted with 3×1 ml of ether to collect any oxygenated products, and an aliquot of each fraction was taken for liquid scintillation counting to determine conversion rate. The monoterpene synthase and diterpene synthase activity assays were similarly performed as described in detail elsewhere (LaFever, R. E., et al., (1994) Arch. Biochem. Biophys. 313, 139-149; Bohlmann, J., et al., (1997) J. Biol. Chem. 272, 21784-21792; Lewinsohn, E., et al., (1991) Plant Physiol. 96, 38-43).
The substrate specificity and other kinetic. parameters of γ-humulene synthase (SEQ ID No:24) and δ-selinene synthase (SEQ ID No:20) were investigated in order to confirm the identification and classification of these enzymes. […] Neither of these sesquiterpene synthases requires K^+ or other monovalent cation for activity.
Substrate specificity of δ-selinene synthase (SEQ ID No:20) and γ-humulene synthase (SEQ ID No:24) was evaluated by comparing farnesyl diphosphate (C15) to geranyl diphosphate (C10) and geranylgeranyl diphosphate (C20) at saturation as precursors of the respective terpene olefins. […] The identities of the monoterpene products produced by the sesquiterpene synthases were determined by GLC-MS and are set forth in FIG. 4.

SMILES | olefin formation from substrate at saturation, compared with farnesyl diphosphate
CC(C)=CCC/C(C)=C/CC/C(C)=C/CC/C(C)=C/COP(=O)(O)OP(=O)(O)O [geranylgeranyl diphosphate, reference compound] | failed to generate detectable olefinic products
CC(C)=CCC/C(C)=C/COP(=O)(O)OP(=O)(O)O [geranyl diphosphate, reference compound] | roughly half the rate

Reference: patent publication US6451576B1, “Sesquiterpene synthases from grand fir (Abies grandis), and methods of use” (Washington State University Research Foundation, priority 1998, dated 2002)
